In ChEMBL document CHEMBL3046161, “Synthesis of potential antitubercular and antimicrobial s-triazine-based scaffolds via Suzuki cross-coupling reaction” (2013):
In brackets after ≈: the same amount, converted by molar mass.

Key:
Format in all cases: functional
[1] = test system: Mycobacterium tuberculosis; experiment: Antimycobacterial activity against Mycobacterium tuberculosis H37Rv assessed as growth inhibition at MIC measured within 10 days by BACTEC MGIT method
Candida albicans [2] = experiment: Antifungal activity against Candida albicans MTCC 183 assessed as growth inhibition at 3.12 to 50 ug/mL after 24 hr by agar disk diffusion method
Candida albicans [3] = experiment: Antifungal activity against Candida albicans MTCC 183 assessed as growth inhibition after 48 hr by agar streak dilution method; conditions: MTCC 183, 48 h
Staphylococcus aureus [4] = experiment: Antibacterial activity against Staphylococcus aureus MTCC 96 assessed as growth inhibition after 24 hr by agar streak dilution method; conditions: MTCC 96, 24 h
Aspergillus niger [5] = experiment: Antifungal activity against Aspergillus niger MTCC 282 assessed as growth inhibition at 3.12 to 50 ug/mL after 24 hr by agar disk diffusion method
Aspergillus fumigatus [6] = experiment: Antifungal activity against Aspergillus fumigatus MTCC 343 assessed as growth inhibition at 3.12 to 50 ug/mL after 24 hr by agar disk diffusion method
Klebsiella pneumoniae [7] = experiment: Antibacterial activity against Klebsiella pneumoniae MTCC 109 assessed as growth inhibition at 3.12 to 50 ug/mL after 24 hr by agar disk diffusion method
[8] = test system: Mycobacterium tuberculosis; experiment: Antimycobacterial activity against Mycobacterium tuberculosis H37Rv assessed as growth inhibition measured within 10 days by BACTEC MGIT method; conditions: 240 h
Klebsiella pneumoniae [9] = experiment: Antibacterial activity against Klebsiella pneumoniae MTCC 109 assessed as growth inhibition after 24 hr by agar streak dilution method; conditions: MTCC 109, 24 h
Staphylococcus aureus [10] = experiment: Antibacterial activity against Staphylococcus aureus MTCC 96 assessed as growth inhibition at 3.12 to 50 ug/mL after 24 hr by agar disk diffusion method
Pseudomonas aeruginosa [11] = experiment: Antibacterial activity against Pseudomonas aeruginosa MTCC 741 assessed as growth inhibition at 3.12 to 50 ug/mL after 24 hr by agar disk diffusion method
Bacillus cereus [12] = experiment: Antibacterial activity against Bacillus cereus MTCC 430 assessed as growth inhibition after 24 hr by agar streak dilution method; conditions: MTCC 430, 24 h
Salmonella typhi [13] = experiment: Antibacterial activity against Salmonella enterica subsp. enterica serovar Typhi MTCC 733 assessed as growth inhibition at 3.12 to 50 ug/mL after 24 hr by agar disk diffusion method
Salmonella typhi [14] = experiment: Antibacterial activity against Salmonella enterica subsp. enterica serovar Typhi MTCC 733 assessed as growth inhibition after 24 hr by agar streak dilution method; conditions: MTCC 733, 24 h
Proteus vulgaris [15] = experiment: Antibacterial activity against Proteus vulgaris MTCC 1771 assessed as growth inhibition after 24 hr by agar streak dilution method; conditions: MTCC 1771, 24 h
Pseudomonas aeruginosa [16] = experiment: Antibacterial activity against Pseudomonas aeruginosa MTCC 741 assessed as growth inhibition after 24 hr by agar streak dilution method; conditions: MTCC 741, 24 h
Aspergillus clavatus [17] = experiment: Antifungal activity against Aspergillus clavatus MTCC 1323 assessed as growth inhibition after 48 hr by agar streak dilution method; conditions: MTCC 1323, 48 h
Escherichia coli [18] = experiment: Antibacterial activity against Escherichia coli MTCC 739 assessed as growth inhibition after 24 hr by agar streak dilution method; conditions: MTCC 739, 24 h
Aspergillus clavatus [19] = experiment: Antifungal activity against Aspergillus clavatus MTCC 1323 assessed as growth inhibition at 3.12 to 50 ug/mL after 24 hr by agar disk diffusion method
Shigella flexneri [20] = experiment: Antibacterial activity against Shigella flexneri MTCC 1457 assessed as growth inhibition after 24 hr by agar streak dilution method; conditions: MTCC 1457, 24 h
Aspergillus niger [21] = experiment: Antifungal activity against Aspergillus niger MTCC 282 assessed as growth inhibition after 48 hr by agar streak dilution method; conditions: MTCC 282, 48 h
Bacillus cereus [22] = experiment: Antibacterial activity against Bacillus cereus MTCC 430 assessed as growth inhibition at 3.12 to 50 ug/mL after 24 hr by agar disk diffusion method
[23] = test system: Mycobacterium tuberculosis; experiment: Antimycobacterial activity against Mycobacterium tuberculosis H37Rv assessed as growth inhibition after 12 to 28 days by Lowenstein and Jensen agar dilution method
Escherichia coli [24] = experiment: Antibacterial activity against Escherichia coli MTCC 739 assessed as growth inhibition at 3.12 to 50 ug/mL after 24 hr by agar disk diffusion method
[25] = test system: Mycobacterium tuberculosis; experiment: Antimycobacterial activity against Mycobacterium tuberculosis H37Rv assessed as growth inhibition at MIC after 12 to 28 days by Lowenstein and Jensen agar dilution method
Shigella flexneri [26] = experiment: Antibacterial activity against Shigella flexneri MTCC 1457 assessed as growth inhibition at 3.12 to 50 ug/mL after 24 hr by agar disk diffusion method
Proteus vulgaris [27] = experiment: Antibacterial activity against Proteus vulgaris MTCC 1771 assessed as growth inhibition at 3.12 to 50 ug/mL after 24 hr by agar disk diffusion method
Aspergillus fumigatus [28] = experiment: Antifungal activity against Aspergillus fumigatus MTCC 343 assessed as growth inhibition after 48 hr by agar streak dilution method; conditions: MTCC 343, 48 h
Aspergillus niger [29] = experiment: Antifungal activity against Aspergillus niger MTCC 282 assessed as growth inhibition at 100 ug/disk after 24 hr by agar disk diffusion method; conditions: MTCC 282, 24 h, read-out: IZ
Aspergillus clavatus [30] = experiment: Antifungal activity against Aspergillus clavatus MTCC 1323 assessed as growth inhibition at 100 ug/disk after 24 hr by agar disk diffusion method; conditions: MTCC 1323, 24 h, read-out: IZ
Candida albicans [31] = experiment: Antifungal activity against Candida albicans MTCC 183 assessed as growth inhibition at 100 ug/disk after 24 hr by agar disk diffusion method; conditions: MTCC 183, 24 h, read-out: IZ
Aspergillus fumigatus [32] = experiment: Antifungal activity against Aspergillus fumigatus MTCC 343 assessed as growth inhibition at 100 ug/disk after 24 hr by agar disk diffusion method; conditions: MTCC 343, 24 h, read-out: IZ

COc1ccc(NC(=O)CNc2ccc(-c3nc(N4CC(C)CC(C)C4)nc(N4CC(C)CC(C)C4)n3)cc2)cc1 (centres undefined)
growth inhibition (GI) [1]: 99%
inhibition zone (IZ) (Candida albicans [2]): 21 mm
MIC (Candida albicans [3]): 25 µg/mL (≈ 44.8 µM)
MIC (Staphylococcus aureus [4]): 50 µg/mL (≈ 89.6 µM)
inhibition zone (IZ) (Aspergillus niger [5]): 14 mm
inhibition zone (IZ) (Aspergillus fumigatus [6]): <10 mm
inhibition zone (IZ) (Klebsiella pneumoniae [7]): <10 mm
MIC [8]: 6.25 µg/mL (≈ 11.2 µM)
MIC (Klebsiella pneumoniae [9]): 50 µg/mL (≈ 89.6 µM)
inhibition zone (IZ) (Staphylococcus aureus [10]): 16 mm
inhibition zone (IZ) (Pseudomonas aeruginosa [11]): 22 mm
MIC (Bacillus cereus [12]): 25 µg/mL (≈ 44.8 µM)
inhibition zone (IZ) (Salmonella typhi [13]): 20 mm
MIC (Salmonella typhi [14]): 25 µg/mL (≈ 44.8 µM)
MIC (Proteus vulgaris [15]): 25 µg/mL (≈ 44.8 µM)
MIC (Pseudomonas aeruginosa [16]): 50 µg/mL (≈ 89.6 µM)
MIC (Aspergillus clavatus [17]): > 50 µg/mL
MIC (Escherichia coli [18]): 50 µg/mL (≈ 89.6 µM)
inhibition zone (IZ) (Aspergillus clavatus [19]): <10 mm
MIC (Shigella flexneri [20]): 50 µg/mL (≈ 89.6 µM)
MIC (Aspergillus niger [21]): 50 µg/mL (≈ 89.6 µM)
inhibition zone (IZ) (Bacillus cereus [22]): 23 mm
MIC [23]: 6.25 µg/mL (≈ 11.2 µM)
inhibition zone (IZ) (Escherichia coli [24]): 19 mm
growth inhibition (GI) [25]: 99%
inhibition zone (IZ) (Shigella flexneri [26]): 19 mm
inhibition zone (IZ) (Proteus vulgaris [27]): 22 mm
MIC (Aspergillus fumigatus [28]): > 50 µg/mL

CC[C@@H](CO)NCCN[C@@H](CC)CO [ETHAMBUTOL]
growth inhibition (GI) [1]: 99%
MIC [8]: 3.12 µg/mL (≈ 15.3 µM)

NNC(=O)c1ccncc1 [ISONIAZID]
growth inhibition (GI) [1]: 99%
MIC [8]: 0.2 µg/mL (≈ 1.46 µM)

CC(=O)N1CCN(c2ccc(OCC3COC(Cn4ccnc4)(c4ccc(Cl)cc4Cl)O3)cc2)CC1 (centres undefined) [KETOCONAZOLE]
MIC (Candida albicans [3]): 1.56 µg/mL (≈ 2.94 µM)
zone of inhibition at 100 µg/disc (Aspergillus niger [29]): 30 mm
zone of inhibition at 100 µg/disc (Aspergillus clavatus [30]): 31 mm
zone of inhibition at 100 µg/disc (Candida albicans [31]): 33 mm
MIC (Aspergillus clavatus [17]): 0.78 µg/mL (≈ 1.47 µM)
MIC (Aspergillus niger [21]): 1.56 µg/mL (≈ 2.94 µM)
zone of inhibition at 100 µg/disc (Aspergillus fumigatus [32]): 29 mm
MIC (Aspergillus fumigatus [28]): 0.78 µg/mL (≈ 1.47 µM)

NC(=O)c1cnccn1 [PYRAZINAMIDE]
growth inhibition (GI) [1]: 99%
MIC [8]: 6.25 µg/mL (≈ 50.8 µM)

CO[C@H]1/C=C/O[C@@]2(C)Oc3c(C)c(O)c4c(O)c(c(/C=N/N5CCN(C)CC5)c(O)c4c3C2=O)NC(=O)/C(C)=C\C=C\[C@H](C)[C@H](O)[C@@H](C)[C@@H](O)[C@@H](C)[C@H](OC(C)=O)[C@@H]1C [RIFAMPIN]
growth inhibition (GI) [1]: 99%
MIC [8]: 0.25 µg/mL (≈ 0.304 µM)
